For one test, the target named is DYRK1B (Homo sapiens, UniProt Q9Y463). The test is described as follows: biochemical. Particulars: KINOMEscan binding, percent of control; read-out: Table S4_SCANMAX REPORT - related to Fig. 1 / Percent Control. Also on record: DiscoverX KINOMEscan scanMAX competition binding panel, single concentration, percent of control; dose or concentration left out as unconfirmed. From the text:
(§1) Certain PTH are potent inhibitors of TLK1 ([Ronald et al., 2013]), and by inference TLK2, as these proteins must homo- and hetero-dimerize for full activation ([Mortuza et al., 2018]), in addition to being highly similar in sequence and structure, and thus similarly targetable. […] Two noteworthy observations are that PTHs are structurally different from many known ATP competitive inhibitors, and that J54 was carefully designed based on considerations reported previously for the THD—the Kinomescan has confirmed that J54 is specific to TLKs. We should point out that although PTH were the first reported inhibitors of TLKs ([Ronald et al., 2013]), other inhibitors particularly of TLK2 have since been reported ([Kim et al., 2016]), some based on structure docking ([Mortuza et al., 2018]), although neither their potency and effects in vivo nor their potential off-target effects have not been reported as they were selected from libraries of kinase inhibitors. Supplementary file mmc2.xlsx: Table S4. SCANMAX Table, Related to Figure 1 Kinomescan of J54 inhibitory activity on human kinases.

The target in a further test is STK33 (Homo sapiens, UniProt Q9BYT3). Put plainly: biochemical. Set-up: DiscoverX KINOMEscan scanMAX competition binding panel, single concentration, percent of control; dose or concentration left out as unconfirmed. To be noted: KINOMEscan binding, percent of control; read-out: Table S4_SCANMAX REPORT - related to Fig. 1 / Percent Control.
Text: as §1

The next test has as its target LTK (Homo sapiens, UniProt P29376). The test is described as follows: biochemical. Set-up: DiscoverX KINOMEscan scanMAX competition binding panel, single concentration, percent of control; dose or concentration left out as unconfirmed. To be noted: KINOMEscan binding, percent of control; read-out: Table S4_SCANMAX REPORT - related to Fig. 1 / Percent Control.
Text: as §1

A further test addresses TTK (Homo sapiens, UniProt P33981). The test is described as follows: Kinomescan SCANMAX panel at […]. It is filed as binding.
The target in another test is TAOK3 (Homo sapiens, UniProt Q9H2K8). Put plainly: biochemical. Also on record: DiscoverX KINOMEscan scanMAX competition binding panel, single concentration, percent of control; remaining binding: dose or concentration left out as unconfirmed. Particulars: KINOMEscan binding, percent of control; read-out: Table S4_SCANMAX REPORT - related to Fig. 1 / Percent Control.
Text: as §1

The target in a further test is PRKCD (Homo sapiens, UniProt Q05655). The test is described as follows: biochemical. Also on record: DiscoverX KINOMEscan scanMAX competition binding panel, single concentration, percent of control; remaining binding: dose or concentration left out as unconfirmed. To be noted: KINOMEscan binding, percent of control; read-out: Table S4_SCANMAX REPORT - related to Fig. 1 / Percent Control.
Text: as §1

The target in a further test is T1, MLK3 (Homo sapiens, UniProt Q16584).
T1 construct: gene MAP3K11
The test is described as follows: biochemical. To be noted: KINOMEscan binding, percent of control; read-out: Table S4_SCANMAX REPORT - related to Fig. 1 / Percent Control. Set-up: DiscoverX KINOMEscan scanMAX competition binding panel, single concentration, percent of control; remaining binding: dose or concentration left out as unconfirmed.
Text: as §1

A further test has as its target PIK3CG (Homo sapiens, UniProt P48736). Put plainly: biochemical. Also on record: DiscoverX KINOMEscan scanMAX competition binding panel, single concentration, percent of control; remaining binding: dose or concentration left out as unconfirmed. To be noted: KINOMEscan binding, percent of control; read-out: Table S4_SCANMAX REPORT - related to Fig. 1 / Percent Control.
Text: as §1

The next test concerns the target IRAK1 (Homo sapiens, UniProt P51617). The test is described as follows: biochemical. Also on record: DiscoverX KINOMEscan scanMAX competition binding panel, single concentration, percent of control; remaining binding: dose or concentration left out as unconfirmed. To be noted: KINOMEscan binding, percent of control; read-out: Table S4_SCANMAX REPORT - related to Fig. 1 / Percent Control.
Text: as §1

The next test deals with CSK (Homo sapiens, UniProt P41240). Put plainly: biochemical. Set-up: DiscoverX KINOMEscan scanMAX competition binding panel, single concentration, percent of control; remaining binding: dose or concentration left out as unconfirmed. Particulars: KINOMEscan binding, percent of control; read-out: Table S4_SCANMAX REPORT - related to Fig. 1 / Percent Control.
Text: as §1

Another test has as its target VRK2 (Homo sapiens, UniProt Q86Y07). Put plainly: biochemical. Set-up: DiscoverX KINOMEscan scanMAX competition binding panel, single concentration, percent of control; remaining binding: dose or concentration left out as unconfirmed. To be noted: KINOMEscan binding, percent of control; read-out: Table S4_SCANMAX REPORT - related to Fig. 1 / Percent Control.
Text: as §1

Test [1] addresses T2, RSK1(Kin.Dom.1-N-terminal) (Homo sapiens, UniProt Q15418).
T2 construct: gene RPS6KA1; Kin.Dom.1-N-terminal
Put plainly: biochemical. Also on record: DiscoverX KINOMEscan scanMAX competition binding panel, single concentration, percent of control; remaining binding: dose or concentration left out as unconfirmed. To be noted: KINOMEscan binding, percent of control; read-out: Table S4_SCANMAX REPORT - related to Fig. 1 / Percent Control.
Text: as §1

The target of a further test is CDK5 (Homo sapiens, UniProt Q00535). The test is described as follows: biochemical. Particulars: KINOMEscan binding, percent of control; read-out: Table S4_SCANMAX REPORT - related to Fig. 1 / Percent Control. Set-up: DiscoverX KINOMEscan scanMAX competition binding panel, single concentration, percent of control; remaining binding: dose or concentration left out as unconfirmed.
Text: as §1

The target in a further test is TAOK2 (Homo sapiens, UniProt Q9UL54). Put plainly: biochemical. Set-up: DiscoverX KINOMEscan scanMAX competition binding panel, single concentration, percent of control; remaining binding: dose or concentration left out as unconfirmed. To be noted: KINOMEscan binding, percent of control; read-out: Table S4_SCANMAX REPORT - related to Fig. 1 / Percent Control.
TAOK2, sequence (Q9UL54 whole entry): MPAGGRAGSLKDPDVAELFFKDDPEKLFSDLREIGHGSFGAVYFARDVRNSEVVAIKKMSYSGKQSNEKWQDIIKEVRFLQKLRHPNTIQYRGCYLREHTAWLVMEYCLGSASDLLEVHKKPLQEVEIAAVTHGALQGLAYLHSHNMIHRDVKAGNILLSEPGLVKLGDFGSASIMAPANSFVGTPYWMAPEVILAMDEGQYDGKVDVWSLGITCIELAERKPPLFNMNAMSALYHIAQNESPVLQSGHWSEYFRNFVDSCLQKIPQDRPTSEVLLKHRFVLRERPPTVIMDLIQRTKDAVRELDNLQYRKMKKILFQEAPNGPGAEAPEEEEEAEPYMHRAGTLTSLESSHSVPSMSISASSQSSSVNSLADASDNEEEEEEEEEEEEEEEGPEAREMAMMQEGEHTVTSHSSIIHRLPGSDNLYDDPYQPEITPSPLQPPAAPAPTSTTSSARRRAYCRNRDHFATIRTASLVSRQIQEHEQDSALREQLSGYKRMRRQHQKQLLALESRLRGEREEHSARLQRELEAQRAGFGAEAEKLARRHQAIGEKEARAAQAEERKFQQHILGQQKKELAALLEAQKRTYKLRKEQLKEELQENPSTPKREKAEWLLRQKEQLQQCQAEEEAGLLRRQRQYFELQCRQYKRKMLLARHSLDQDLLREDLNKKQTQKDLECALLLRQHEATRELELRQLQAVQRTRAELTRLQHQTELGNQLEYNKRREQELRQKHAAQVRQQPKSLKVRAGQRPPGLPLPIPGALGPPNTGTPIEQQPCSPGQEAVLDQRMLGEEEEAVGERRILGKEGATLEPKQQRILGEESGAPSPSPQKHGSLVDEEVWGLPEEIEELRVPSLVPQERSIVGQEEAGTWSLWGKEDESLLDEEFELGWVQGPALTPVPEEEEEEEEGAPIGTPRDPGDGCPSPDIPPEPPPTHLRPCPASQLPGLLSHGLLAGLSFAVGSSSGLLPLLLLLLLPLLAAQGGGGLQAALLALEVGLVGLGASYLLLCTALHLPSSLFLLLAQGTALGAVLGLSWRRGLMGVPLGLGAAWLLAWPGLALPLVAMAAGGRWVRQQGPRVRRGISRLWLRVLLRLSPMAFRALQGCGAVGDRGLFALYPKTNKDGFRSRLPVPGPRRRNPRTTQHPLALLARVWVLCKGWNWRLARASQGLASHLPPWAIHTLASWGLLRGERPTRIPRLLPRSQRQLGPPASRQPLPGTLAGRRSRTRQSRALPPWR
Text: as §1

A further test addresses WNK4 (Homo sapiens, UniProt Q96J92). Put plainly: biochemical. Particulars: KINOMEscan binding, percent of control; read-out: Table S4_SCANMAX REPORT - related to Fig. 1 / Percent Control. Also on record: DiscoverX KINOMEscan scanMAX competition binding panel, single concentration, percent of control; remaining binding: dose or concentration left out as unconfirmed.
Text: as §1

Another test addresses BUB1 (Homo sapiens, UniProt O43683). Put plainly: biochemical. Also on record: DiscoverX KINOMEscan scanMAX competition binding panel, single concentration, percent of control; remaining binding: dose or concentration left out as unconfirmed. To be noted: KINOMEscan binding, percent of control; read-out: Table S4_SCANMAX REPORT - related to Fig. 1 / Percent Control.
Text: as §1

In test [2] the target is T3, JAK1(JH2domain-pseudokinase) (Homo sapiens, UniProt P23458).
T3 construct: JH2domain-pseudokinase
Put plainly: biochemical. Also on record: DiscoverX KINOMEscan scanMAX competition binding panel, single concentration, percent of control; remaining binding: dose or concentration left out as unconfirmed. To be noted: KINOMEscan binding, percent of control; read-out: Table S4_SCANMAX REPORT - related to Fig. 1 / Percent Control.
Text: as §1

The target in the next test is GRK7 (Homo sapiens, UniProt Q8WTQ7). Put plainly: biochemical. Set-up: DiscoverX KINOMEscan scanMAX competition binding panel, single concentration, percent of control; remaining binding: dose or concentration left out as unconfirmed. Particulars: KINOMEscan binding, percent of control; read-out: Table S4_SCANMAX REPORT - related to Fig. 1 / Percent Control.
GRK7, sequence (Q8WTQ7 whole entry): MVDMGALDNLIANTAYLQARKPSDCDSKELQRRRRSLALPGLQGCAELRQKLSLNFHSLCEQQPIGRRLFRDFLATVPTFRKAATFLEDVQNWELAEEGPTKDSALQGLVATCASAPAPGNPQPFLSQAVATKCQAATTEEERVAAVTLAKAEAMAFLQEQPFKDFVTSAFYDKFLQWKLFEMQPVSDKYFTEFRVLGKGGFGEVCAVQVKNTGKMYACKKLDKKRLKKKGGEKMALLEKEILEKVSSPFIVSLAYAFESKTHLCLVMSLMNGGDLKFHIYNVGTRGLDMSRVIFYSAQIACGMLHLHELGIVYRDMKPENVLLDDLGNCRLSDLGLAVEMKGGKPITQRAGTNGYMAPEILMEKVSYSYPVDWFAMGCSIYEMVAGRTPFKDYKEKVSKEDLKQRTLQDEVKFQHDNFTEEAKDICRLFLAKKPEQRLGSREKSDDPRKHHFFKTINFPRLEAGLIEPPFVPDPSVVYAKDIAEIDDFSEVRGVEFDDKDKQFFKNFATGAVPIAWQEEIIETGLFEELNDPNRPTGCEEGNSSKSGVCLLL
Text: as §1

For another test, the target named is PRKCH (Homo sapiens, UniProt P24723). Put plainly: biochemical. Also on record: DiscoverX KINOMEscan scanMAX competition binding panel, single concentration, percent of control; remaining binding: dose or concentration left out as unconfirmed. Particulars: KINOMEscan binding, percent of control; read-out: Table S4_SCANMAX REPORT - related to Fig. 1 / Percent Control.
Text: as §1

Molecules are shown by their SMILES.

LTK, sequence (P29376 whole entry): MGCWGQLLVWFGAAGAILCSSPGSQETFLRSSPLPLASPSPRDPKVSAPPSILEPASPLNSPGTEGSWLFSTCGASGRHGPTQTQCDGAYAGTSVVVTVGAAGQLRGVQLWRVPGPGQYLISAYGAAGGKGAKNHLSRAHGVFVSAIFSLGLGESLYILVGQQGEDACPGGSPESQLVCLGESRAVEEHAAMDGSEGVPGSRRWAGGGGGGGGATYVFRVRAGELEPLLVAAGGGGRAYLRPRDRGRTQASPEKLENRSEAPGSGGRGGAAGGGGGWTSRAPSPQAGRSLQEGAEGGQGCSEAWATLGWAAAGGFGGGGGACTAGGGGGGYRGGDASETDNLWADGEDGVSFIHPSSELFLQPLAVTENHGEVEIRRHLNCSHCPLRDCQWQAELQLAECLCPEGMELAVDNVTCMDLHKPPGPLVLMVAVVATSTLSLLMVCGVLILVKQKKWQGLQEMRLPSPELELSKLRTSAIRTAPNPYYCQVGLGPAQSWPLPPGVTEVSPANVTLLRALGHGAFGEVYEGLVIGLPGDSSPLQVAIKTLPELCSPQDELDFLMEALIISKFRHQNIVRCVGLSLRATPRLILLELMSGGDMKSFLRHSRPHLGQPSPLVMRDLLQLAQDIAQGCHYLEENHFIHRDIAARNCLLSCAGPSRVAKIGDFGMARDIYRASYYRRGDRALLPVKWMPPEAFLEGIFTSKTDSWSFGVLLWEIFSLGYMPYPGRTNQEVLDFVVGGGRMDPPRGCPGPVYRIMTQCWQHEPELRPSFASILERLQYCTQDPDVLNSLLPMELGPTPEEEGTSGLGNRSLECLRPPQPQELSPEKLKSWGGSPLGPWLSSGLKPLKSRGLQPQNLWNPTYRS
BUB1, sequence (O43683 whole entry): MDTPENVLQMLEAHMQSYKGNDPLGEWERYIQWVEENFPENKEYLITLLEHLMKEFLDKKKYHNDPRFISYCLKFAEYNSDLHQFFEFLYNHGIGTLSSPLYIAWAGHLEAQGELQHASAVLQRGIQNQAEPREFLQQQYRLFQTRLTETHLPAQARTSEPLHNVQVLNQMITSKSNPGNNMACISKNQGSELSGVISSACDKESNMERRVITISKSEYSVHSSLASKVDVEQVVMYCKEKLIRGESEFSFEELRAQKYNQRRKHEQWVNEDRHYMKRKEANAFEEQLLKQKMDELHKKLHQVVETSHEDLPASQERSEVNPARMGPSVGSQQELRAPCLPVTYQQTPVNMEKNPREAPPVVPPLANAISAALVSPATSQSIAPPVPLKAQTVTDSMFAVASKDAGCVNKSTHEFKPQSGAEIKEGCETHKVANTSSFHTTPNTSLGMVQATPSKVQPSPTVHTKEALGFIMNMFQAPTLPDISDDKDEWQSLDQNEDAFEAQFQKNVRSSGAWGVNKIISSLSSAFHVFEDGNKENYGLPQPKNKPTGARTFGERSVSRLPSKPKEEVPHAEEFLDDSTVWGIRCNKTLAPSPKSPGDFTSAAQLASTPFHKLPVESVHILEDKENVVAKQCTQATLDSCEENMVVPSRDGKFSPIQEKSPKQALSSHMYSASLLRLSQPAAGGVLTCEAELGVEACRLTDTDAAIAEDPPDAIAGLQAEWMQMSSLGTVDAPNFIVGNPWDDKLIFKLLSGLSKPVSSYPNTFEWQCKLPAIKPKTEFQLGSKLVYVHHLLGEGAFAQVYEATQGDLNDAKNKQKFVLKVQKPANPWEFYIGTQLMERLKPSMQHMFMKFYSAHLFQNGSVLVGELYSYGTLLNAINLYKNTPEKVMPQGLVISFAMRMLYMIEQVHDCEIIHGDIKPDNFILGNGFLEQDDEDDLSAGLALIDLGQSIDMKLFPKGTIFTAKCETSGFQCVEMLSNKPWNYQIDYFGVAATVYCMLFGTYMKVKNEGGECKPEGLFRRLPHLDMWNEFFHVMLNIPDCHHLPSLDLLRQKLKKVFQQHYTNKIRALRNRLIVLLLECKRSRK
VRK2, sequence (Q86Y07 whole entry): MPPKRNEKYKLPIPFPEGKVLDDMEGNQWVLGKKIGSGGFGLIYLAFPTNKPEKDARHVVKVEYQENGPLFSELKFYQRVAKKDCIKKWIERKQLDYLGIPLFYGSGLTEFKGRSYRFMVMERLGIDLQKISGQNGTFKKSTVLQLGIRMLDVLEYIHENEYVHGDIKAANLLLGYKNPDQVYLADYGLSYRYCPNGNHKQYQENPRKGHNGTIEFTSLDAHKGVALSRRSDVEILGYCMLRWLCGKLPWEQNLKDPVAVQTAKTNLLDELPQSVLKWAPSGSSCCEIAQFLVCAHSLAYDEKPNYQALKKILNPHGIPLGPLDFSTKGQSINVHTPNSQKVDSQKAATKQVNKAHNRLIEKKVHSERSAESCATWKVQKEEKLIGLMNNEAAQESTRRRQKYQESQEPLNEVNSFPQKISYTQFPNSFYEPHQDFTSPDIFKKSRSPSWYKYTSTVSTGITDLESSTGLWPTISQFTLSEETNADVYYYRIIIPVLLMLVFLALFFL
TTK, sequence (P33981 whole entry): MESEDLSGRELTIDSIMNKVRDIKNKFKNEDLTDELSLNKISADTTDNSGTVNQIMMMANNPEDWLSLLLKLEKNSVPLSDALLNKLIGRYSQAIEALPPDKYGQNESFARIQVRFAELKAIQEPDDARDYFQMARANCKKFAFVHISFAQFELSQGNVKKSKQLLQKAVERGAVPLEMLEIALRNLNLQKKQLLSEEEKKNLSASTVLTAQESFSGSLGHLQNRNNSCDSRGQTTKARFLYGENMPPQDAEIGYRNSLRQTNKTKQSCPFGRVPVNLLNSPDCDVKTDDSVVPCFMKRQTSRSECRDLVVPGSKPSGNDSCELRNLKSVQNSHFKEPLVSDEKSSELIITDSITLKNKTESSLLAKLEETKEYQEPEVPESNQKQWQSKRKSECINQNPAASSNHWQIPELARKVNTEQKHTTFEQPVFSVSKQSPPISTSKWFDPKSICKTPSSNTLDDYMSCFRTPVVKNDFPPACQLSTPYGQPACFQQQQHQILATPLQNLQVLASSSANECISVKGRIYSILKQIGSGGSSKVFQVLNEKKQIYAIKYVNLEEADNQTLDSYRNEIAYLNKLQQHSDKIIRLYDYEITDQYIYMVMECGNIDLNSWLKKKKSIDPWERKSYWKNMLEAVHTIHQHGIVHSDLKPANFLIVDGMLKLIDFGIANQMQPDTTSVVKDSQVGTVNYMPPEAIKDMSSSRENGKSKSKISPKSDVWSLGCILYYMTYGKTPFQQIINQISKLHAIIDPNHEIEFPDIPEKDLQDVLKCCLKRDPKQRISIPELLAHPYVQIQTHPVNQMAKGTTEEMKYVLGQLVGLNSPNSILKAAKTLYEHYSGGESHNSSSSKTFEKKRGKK

With `c1ccc2c(c1)Sc1ccccc1N2CCN1CCOCC1` [J54], the remaining binding on DYRK1B is 54%; at STK33, 100%; on LTK, 100%; at TAOK3, 100%; on PRKCD, 100%; on MLK3 it was 100%. The remaining binding on PIK3CG is 99%; at IRAK1, 100%; at CSK, 100%; at VRK2, 70%; in [1], 100%; on CDK5 it was 99%. The remaining binding at TAOK2 came out at 100%; at WNK4 it was 91%; on BUB1, 79%; in [2], 99%; on GRK7 it was 100%; at PRKCH, 94%. The “Kinomescan SCANMAX panel at 15 μM” value on TTK is recorded as “little inhibition of all other kinases with the exception of TTK”.

For the origin of these results see PMC7486443, “Generation of Phenothiazine with Potent Anti-TLK1 Activity for Prostate Cancer Therapy” (iScience, 2020).
